Consider 1 compound from patent publication US8865750B2, “Small molecule inhibitors of RGS proteins” (The Regents of The University of Michigan, priority 2011, dated 2014).

“Also recorded” adds a separate entry of the source. Read-outs that look alike come from different tables or passages of the source.

In general, IC50 refers to the concentration at which inhibition is half-maximal. What is called solubility is how much of the substance goes into solution per volume. Read a low solubility as little dissolved substance.

Series [1] has as its target T1, RGS4 (Homo sapiens (Human), UniProt P49798). In words: Steady-state GAP assay (malachite green). The series is classed as biochemical. As for the experimental part:
Steady-state GAP Assay: Steady-state hydrolysis of unlabled GTP was measured using malachite green in a receptor-independent assay utilizing a mutant Gαi1 (R178M, A326S) (Zielinski et al., (2009) J Biomol Screen 14, 1195-1206). These mutations facilitate the release of GDP from the enzyme making the GTP hydrolysis step rate-limiting (Lielinski et al., supra). […] The reaction is allowed to proceed for 2 hours at room temperature and then quenched with an H2SO4/malachite green dye solution. Immediately after addition of malachite green, sodium citrate was added as a colorimetric stablizer. Released inorganic phosphate was measured as an increase in absorbance (Abs630) from the complex of phosphate with malachite green (Chang, et al., 2008). Background control samples lacking Gα or RGS were used to determine the rate of non-enzymatic GTP hydrolysis.
Target sequence in this assay (P49798 whole entry, species assumed): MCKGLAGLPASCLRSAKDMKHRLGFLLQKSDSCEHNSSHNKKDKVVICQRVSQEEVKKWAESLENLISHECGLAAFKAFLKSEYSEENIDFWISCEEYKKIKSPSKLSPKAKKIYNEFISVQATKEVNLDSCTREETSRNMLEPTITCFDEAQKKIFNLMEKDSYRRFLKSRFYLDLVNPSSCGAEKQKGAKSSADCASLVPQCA

A further series concerns M3 muscarinic receptor. Nature of the series: Carbachol-induced Ca2+ response, M3 cells without RGS4 dependence. The series is classed as cell-based. As to conditions: for effect on carbachol-induced Ca2+ response (RGS-independent): 10 μM (FIG. 20) or as stated. As for the experimental part:
(§1) Calcium Mobilization Experiments:
(§2) A stable cell line was developed based upon the HEK-293 Flp-In TREx cell line (Invitrogen, Carlsbad, Calif.) that stably express the muscarinic M3 receptor and have human RGS4 expression under doxycycline control. Cells were maintained in DMEM supplemented with 10% fetal bovine serum and Penicillin (100 units/ml)-Streptomycin (100 μg/ml) under 5% CO2 at 37° C. For experiments, cells were split into 96-well black, clear bottom, poly-D-lysine coated microtiter plates (Nunc, Cat. #152037) at a density of 20,000 cells/well in DMEM containing 10% fetal bovine serum and Penicillin (100 units/ml), Streptomycin (100 μg/ml). RGS4 expression was induced by supplementing the medium with 1 μg/mL doxycycline for 24-48 hours before experimentation. Cells were loaded with Fluo-4 No Wash dye in buffer for 30 minutes at 37° C. Compounds and/or carbachol were added to the wells and the fluorescence intensity was measured using a FlexStation (Molecular Devices, Sunnyvale, Calif.) plate reader. Data analysis was performed by calculating the area under the curve or maximal fluorescence intensity from a 120 second kinetic measurement.
as §2, with “Calcium signaling transients: A” for “A”, “units/ml)-Streptomycin” for “units/ml), Streptomycin”

The target of the next series is RGS8 (Homo sapiens (Human), UniProt P57771). Nature of the series: FCPIA: Gαo binding to RGS8. From the text: (§3) FCPIA Dose Response and Reversibility Experiments:
The target of series [2] is T1, RGS4. In words: Single turnover GTPase (GAP) assay, RGS4. The series is classed as biochemical. Here is the method:
Single Turnover GTPase Measurements:
Compounds were tested for the ability to inhibit the RGS4 and RGS8-stimulated increase in GTP hydrolysis by Gα0 as described previously (Roman, D. L., et al., Mol Pharmacol, 2007. 71(1): p. 169-75; Roof, R. A., et al., Chem Biol Drug Des, 2006. 67(4): p. 266-74).
Compounds were tested for the ability to inhibit the RGS4 and RGS8-stimulated increase in GTP hydrolysis by Gα0 as previously described (Roman, D. L., et al., Mol Pharmacol, 2007. 71(1): p. 169-75; Roof, R. A., et al., Chem Biol Drug Des, 2006. 67(4): p. 266-74).
Single-turnover GAP assay: Experiments were performed as previously described using purified his6-tagged Gαo (Blazer et al., Biochemistry 50, 3181-3192; Roof et al., (2008) Chem Biol Drug Des 72, 111-119).
Target sequence in this assay (P49798 52-205, species assumed): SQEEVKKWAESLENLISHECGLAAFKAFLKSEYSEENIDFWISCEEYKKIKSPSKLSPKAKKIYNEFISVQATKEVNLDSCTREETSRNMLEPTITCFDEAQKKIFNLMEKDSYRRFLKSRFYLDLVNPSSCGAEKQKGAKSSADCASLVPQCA

Another series addresses RGS16 (Homo sapiens (Human), UniProt O15492). In words: FCPIA: Gαo binding to RGS16. The note with it: Table 7. Here is the method: as §3
(§4) FCPIA was performed as previously described using chemically biotinylated RGS proteins and AlexaFluor-532 labeled Gα0. (Roman et al., J Biomol Screen, 2009; Blazer, L. L., et al., Mol Pharmacol).
(§5) RGS/Gα binding studies: The binding of biotinylated RGS proteins to fluorescently labeled Gαo was measured by Flow Cytometry Protein Interaction Assay (FCPIA) method previously described (Roman et al., (2009) J Biomol Screen.; Blazer et al., (2010) Curr Protoc Cytom Chapter 13, Unit 13 11 11-15; Roman et al., (2007) Mol Pharmacol 71, 169-175) as were the measures of compound reversibility.

Series [3] is described as follows: Heart rate and blood pressure in freely-moving rats. The series is classed as in vivo. From the text:
The muscarinic agonist carbachol can induce a transient bradycardic effect by activating M2 receptors in the SAN.

The next series in a line: Solubility experiments. The series is classed as physicochemical. As to conditions: water; aqueous. Here is the method: Compounds were diluted to 100 mM in DMSO and the further diluted to 500 μM in H2O, vortexed and centrifuged for 10 minutes at 13,000×g at ambient temperature.
For series [4], the system named is RGS4. In words: FCPIA: Gαo binding to RGS4.
Source text: as §3

Series [5] concerns the target T1, RGS4. Nature of the series: Carbachol Ca2+ mobilization, M3 HEK-293 cells with doxycycline-induced RGS4. The series is classed as cell-based. Here is the method: as §1
as §2, with “RGS4 expression was induced by supplementing the medium with 1 μg/mL doxycycline for 24-48 hours before experimentation. Cells were loaded with Fluo-4 No Wash dye in buffer for 30 minutes at 37° C.” left out
Target sequence in this assay (P49798 whole entry): as the sequence (P49798 whole entry, species assumed) above
Calcium signaling transients: A stable cell line was developed based upon the HEK-293 Flp-In TREx cell line (Invitrogen, Carlsbad, Calif.) that stably express the muscarinic M3 receptor and have human RGS4 expression under doxycycline control. […] Compounds and/or carbachol were added to the wells and the fluorescence intensity was measured using a FlexStation (Molecular Devices, Sunnyvale, Calif.) plate reader. […]

For a further series, the target named is RGS7 (Homo sapiens (Human), UniProt P49802). In words: FCPIA: Gαo binding to RGS7. As to conditions: Table 7. Here is the method:
as §3, §4, §5

Another series addresses papain (Carica papaya (Papaya), UniProt P00784). Nature of the series: biochemical. The series is classed as biochemical. The text has this: Papain (Sigma-Aldrich, St. Louis, Mo.) activity was monitored by the increase in fluorescence caused by the liberation of fluorescein from autoquenched fluorescein-conjugated casein (AnaSpec, San Jose, Calif.).

RGS8, sequence (P57771 other isoform, or with tags, fused parts or gaps): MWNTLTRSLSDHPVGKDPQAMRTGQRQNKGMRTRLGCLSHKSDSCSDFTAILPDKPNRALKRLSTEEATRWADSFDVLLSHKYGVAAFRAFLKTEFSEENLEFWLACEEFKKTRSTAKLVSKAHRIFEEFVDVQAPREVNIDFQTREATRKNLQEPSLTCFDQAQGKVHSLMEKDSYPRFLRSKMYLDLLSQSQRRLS
papain, sequence (P00784 134-345): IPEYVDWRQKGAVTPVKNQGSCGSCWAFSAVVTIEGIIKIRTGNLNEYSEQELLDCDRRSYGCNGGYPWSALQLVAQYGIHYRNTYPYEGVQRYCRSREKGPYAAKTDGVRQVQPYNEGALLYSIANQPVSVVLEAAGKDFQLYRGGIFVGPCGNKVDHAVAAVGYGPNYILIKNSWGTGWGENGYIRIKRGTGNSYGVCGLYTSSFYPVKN
RGS7, sequence (P49802 whole entry, species assumed): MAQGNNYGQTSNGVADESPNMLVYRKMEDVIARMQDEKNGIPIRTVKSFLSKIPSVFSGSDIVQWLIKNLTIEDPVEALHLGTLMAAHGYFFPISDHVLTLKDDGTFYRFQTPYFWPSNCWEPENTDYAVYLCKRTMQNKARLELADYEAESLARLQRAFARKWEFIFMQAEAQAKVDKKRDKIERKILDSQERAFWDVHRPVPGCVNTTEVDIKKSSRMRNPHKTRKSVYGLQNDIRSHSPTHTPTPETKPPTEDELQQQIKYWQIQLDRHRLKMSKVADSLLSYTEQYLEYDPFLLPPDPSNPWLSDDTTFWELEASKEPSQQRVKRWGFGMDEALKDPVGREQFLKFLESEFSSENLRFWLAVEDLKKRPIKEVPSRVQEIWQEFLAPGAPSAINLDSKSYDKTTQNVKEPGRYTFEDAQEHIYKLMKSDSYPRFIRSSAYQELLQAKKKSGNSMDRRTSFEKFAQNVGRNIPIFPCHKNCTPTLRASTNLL
RGS16, sequence (O15492 whole entry, species assumed): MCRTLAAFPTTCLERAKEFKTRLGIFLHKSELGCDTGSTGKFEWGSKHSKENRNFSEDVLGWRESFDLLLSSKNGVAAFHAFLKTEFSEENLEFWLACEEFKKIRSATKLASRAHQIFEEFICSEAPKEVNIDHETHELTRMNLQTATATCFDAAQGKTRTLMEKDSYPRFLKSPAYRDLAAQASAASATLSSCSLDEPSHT

Regarding `CCCCn1c(=O)sn(CC)c1=O` [CCG-203769, 2-ethyl-4-butyl-1,2,4-thiadiazolidine-3,5-dione], the “inhibition of RGS4 effect in steady-state GTPase assay” value at RGS4 [1] is given as “potently inhibits the functional effect of RGS4”. Further, the “concentration above which carbachol Ca2+ transient is inhibited” value in the series on M3 muscarinic receptor is over 3 µM. Moreover, the “effect on carbachol-induced Ca2+ response (RGS-independent)” value in the series on M3 muscarinic receptor is recorded as “without affecting M3-mediated calcium signal; also recorded: does not directly affect the carbachol stimulation”; in the series on M3 muscarinic receptor (listed as 11b), “no effect”. Moreover, the “RGS8 Hill Slope” value at RGS8 (Table 3) is −0.56. The IC50 on RGS8 (Table 6, FCPIA, read-out: RGS8 IC50) is 83.5 µM; on RGS8 (Table 7, read-out: IC50 (μM), RGS8), 79 µM; at RGS16 it was 6 µM; on RGS4 [4] (FCPIA, listed as 11b, read-out: IC50 against RGS4) it was 0.0144 µM; at RGS7 it was over 100 µM; on papain (Table 7), over 100 µM. In addition, the “inhibition of GAP activity of RGS4” value against RGS4 [2] is given as “potently inhibits the functional effect of RGS4”. Moreover, in [3] (10 mg/kg IV + carbachol 0.1 mg/kg IP), the “blood pressure, carbachol plus compound” value was “does not reach statistical significance”. The “bradycardic effect of carbachol after compound” value in series [3] (10 mg/kg IV before carbachol 0.1 mg/kg IP) was “significantly potentiated”. For the same compound, the “effect upon blood pressure, compound alone” value in [3] (10 mg/kg, IV) is recorded as “no significant effect”. Further, the “effect upon heart rate, compound alone” value in series [3] (10 mg/kg, IV) is given as “no significant effect”. The same compound yielded a solubility in “Solubility experiments” of over 5 mM. The “reversibility of RGS4 inhibition after washing” value with RGS4 [4] (100 μM CCG-50014 or 500 nM CCG-203769, beads washed) is reported as “irreversible”. Further, the “RGS4 Hill Slope” value in the series on RGS4 [4] (Table 3) was −0.71. The “lowest concentration with enhanced Ca2+ signaling” value at RGS4 [5] was 1 µM. For the same compound, the “reversal of RGS4-mediated suppression of carbachol Ca2+ response” value on RGS4 [5] (15 min pretreatment, 1 and 3 μM) was “partially rescued; also recorded: partially reverse”. Also, the inhibition of papain result on papain (30 μM) is “unable to inhibit the protease activity of papain”.
